According to patent publication US4658013A, “Analgesic and/or opiate antagonist tripeptide amides and processes for preparation and compositions thereof” (Sterling Drug Inc., priority 1983, dated 1987):
Non-standard residues stand in square brackets, D forms with d. No end group written: not given here.

Tests used:
[1] = system: guinea pig ileum longitudinal muscle with adhering myenteric plexus; conditions: Vavrek et al., Abstract P-76, 1981; cited from earlier work
[2] = system: guinea pig ileum longitudinal muscle with adhering myenteric plexus; experiment: Guinea pig ileum test (inhibition of electrically induced twitch of longitudinal muscle strips); type: cell-based; conditions: ratio of IC50 of reference Met^5-enkephalin to IC50 of test compound in the same preparation, averaged (N=4); reference given as 100
Method: Adult male guinea pigs (Charles River, Hartley strain) weighing 300-500 g. are decapitated, and the terminal ileum is exposed by reflecting the overlying cecum, severed at the ileocecal juncture, and removed while cutting the mesenteric attachments to avoid excessive traction on the tissue. The ileum (about 30 cm. in length) is transferred to a beaker containing warm modified Krebs-Henseleit solution (118 mM sodium chloride, 4.75 mM potassium chloride, 2.54 mM calcium chloride, 1.19 mM potassium dihydrogen phosphate, 1.2 mM magnesium sulfate, 25 mM sodium bicarbonate, 11 mM glucose, 20 μM choline chloride and 0.125 μM pyrilamine maleate). The terminal (aboral) portion (about 10 cm, in length) is discarded, and segments (3-4 cm. in length) are cut from the remainder and gently slid onto a glass rod (5-6 mm. in diameter) and arranged so that the mesenteric attachment is in a straight line. A cotton swab moistened in the solution is then carefully used to separate the longitudinal muscle from the underlying circular muscle. The longitudinal muscle and adhering myenteric plexus is then gently removed from the remaining tissue with forceps.
Strips of thus prepared longitudinal muscle are mounted in a double-jacketed organ bath (5 ml.) under tension (1.0 g.), connected to isometric transducers (Grass FT 0.03), bathed in the modified Krebs-Henseleit solution described above, aerated with oxygen-carbon dioxide (95:5) and maintained at 37° C.
Stimulators (Grass S-44) are set to deliver repetitive, monophasic square wave field stimulation (supramaximal voltage, 0.10 Hz., 0.25 msec. duration) through platinum ring electrodes at the top and bottom of the bath. Regular contractions of the muscle, which result from electrically-induced liberation of acetylcholine from postganglionic parasympathetic nerves, are recorded on a polygraph (Grass model 5). Following tissue equilibration (45-60 min.) and repeated washing (every 10 min.) an aqueous solution of a reference or test compound is added to the bath in a microliter volume (1.25-250 μl) and reductions in muscle twitch height are recorded. More compound can be added […] first washing the preparation.
From the results a half-maximal inhibitory concentration (IC50) value for the compound is computed by regression analysis of a linear plot of logarithm of concentration against percent of inhibition of twitch height (probits). The ratio of the IC50 value of a reference compound to that of a test compound tested in the same preparation is the molar potency ratio. At least four preparations are tested simultaneously (N=4), and the resulting molar potency ratios are averaged.
The following results were obtained using the examples as test compounds and Met^5 -enkephalin as the reference compound: […]

Row | Compound | activity as % of Met-enkephalin on the stimulated guinea pig ileum [1] [%] | Average Molar Potency Ratio [2]
1 | Tyr-[dA]-Phe-NH2 | 25 | 
2 | CC(C)CCNC(=O)[C@H](Cc1ccccc1)NC(=O)[C@@H](C)NC(=O)[C@@H](N)Cc1ccc(O)cc1 [Example 1, L-tyrosyl-D-alanyl-N-(3-methylbutyl)-L-phenylalaninamide] |  | 25
3 | Met^5 -enkephalin [reference compound] |  | 100
4 | D,L-N-(3-methylbutyl)-2-[(L-tryosyl-D-alanyl)amino]benzenepentanamide [Example 7] |  | 5
5 | CC(C)CCN(CCc1ccccc1)C(=O)[C@H](Cc1ccccc1)NC(=O)[C@@H](C)NC(=O)[C@@H](N)Cc1ccc(O)cc1 [Example 2, L-tyrosyl-D-alanyl-N-(3-methylbutyl)-N-(2-phenylethyl)-L-phenylalaninamide] |  | 6
6 | CC(C)CCNC(=O)[C@H](Cc1ccccc1)NC(=O)[C@@H](CN(C)C)NC(=O)[C@@H](N)Cc1ccc(O)cc1 [Example 3, L-tyrosyl-3-(dimethylamino)-D-alanyl-N-(3-methylbutyl)-L-phenylalaninamide] |  | 5
